Results as given in US20250003969A1, “METHODS TO IDENTIFY AND TREAT SUBJECTS HAVING CORTICOSTEROID-RESISTANT INFLAMMATORY DISEASES” (priority 2013, published 2025).
“Also recorded” adds a separate entry of the source.

How the values were obtained:
ERK phosphorylation = experiment: Western blot of ERK phosphorylation as downstream read out for TAK1 activation by H. parainfluenzae; format: cell-based, human; details: 2 μM inhibitor, 15 min H. para, bacteria to cell ratio 1:1, monocytes from asthma patients, FIG. 4D
Protocol: (§1) P38 mitogen activated protein kinase (MAPK) stimulation by bacteria. P38 MAPK activation in response to various concentrations of pathogenic and commensal bacteria as well as time course of p38 activation in response to these bacteria was determined. Cells were stimulated with 0.1 and 1 bacteria per cell, at kinetic time frames from 15 min to 3 h (monocytes), or after 3h of stimulation with bacteria (BAL macrophages). […] Protein concentration was determined by Bradford assay and cell lysates were analyzed for p-p38 MAPK expression by Western blot as described by us earlier (Zhang Y et al., J Immunol 2012, in press).
(§2) The effects of inhibitors on cellular response to corticosteroids. […] (Calbiochem, EMD Serono, Inc., Rockland, MA) (2 μM), the p38 inhibitor, SB203580 (10 μM) (Calbiochem) or the cocktail of the three MAPK inhibitors (SB203580, p38 inhibitor; PD98059, MEK1/ERK inhibitor (Invitrogen, Life Technologies, Grand Island, NY) and SP600125, JNK inhibitor (InVivogen, San Diego, CA), all at 10 μM) for 1 h prior to stimulation with bacteria and cellular response to corticosteroids was evaluated by real time PCR as described above. […]

[1] = system: peripheral blood monocytes from asthmatics; experiment: Effects of inhibitors on MKP-1 and IL-8 mRNA induction by H. parainfluenzae and on cellular response to corticosteroids (real time PCR); format: cell-based, human; details: for cellular sensitivity to corticosteroids in vitro (MKP-1 mRNA induction by DEX) in the presence of H. parainfluenzae: inhibitor 1 h, bacteria 15 min, then 3 h DEX, FIG. 4C; for MKP-1 mRNA induction by H. parainfluenzae / IL-8 mRNA induction by H. parainfluenzae: monocytes preincubated with inhibitor 1 h (TAK1 inhibitor 2 μM, others 10 μM); for MKP-1 mRNA induction by H. parainfluenzae: bacteria to cell ratio 1:1, FIG. 4A; for IL-8 mRNA induction by H. parainfluenzae: bacteria to cell ratio 1:1, FIG. 4B
Protocol: Cell culture and treatment. Peripheral blood mononuclear cells (PBMC) were isolated from asthma patients. Monocytes were prepared by negative selection using Human Monocyte Isolation Kit II (Milteniyi Biotech Inc., Auburn, CA). BAL macrophages were enriched by 3 h plastic adhesion. Cell purity was ≥95%. In all experiments, monocytes and BAL macrophages were cultured in the X-VIVO™ 15 serum free medium overnight; medium was replaced with X-VIVO™ 15 medium without antibiotics prior to addition of bacteria. Bacteria were added to 10^6 cells/ml in culture at 0.1 or 1 bacteria per cell.
In vitro response to corticosteroids in the presence of bacteria. 0.5×10^6 monocytes or 2.5×10^5 BAL macrophages per condition were cultured overnight in X-VIVO™ 15 media, treated with 0.1 to 1 bacteria per cell or 10 ng/ml of E. coli strain 0111: B4 LPS (Sigma-Aldrich Corp) for 15 min and stimulated with 10^−6 M dexamethasone (DEX) for an additional 3 h still in the presence of bacteria. Following incubation the cells were preserved in RLT buffer (Qiagen, Inc., Valencia, CA). RNA was extracted using RNAEASYR Mini kit (Qiagen), and analyzed by real-time PCR as previously described (Goleva E et al., J Allergy Clin Immunol 2012; 129: 687-93e1) for the expression of corticosteroid-regulated targets mitogen activated kinase phosphatase 1 (MKP-1), and IL-8. 18s RNA was measured as a house keeping gene. All primers were purchased from Applied Biosystems (Life Technologies Corporation, Carlsbad, CA). Standard curves for gene targets were generated using the fluorescent data from two-fold serial dilutions of total RNA of the highest expression sample. Quantities of each target gene in test samples were normalized to the corresponding levels of the housekeeping gene (18s RNA) in each sample. Fold induction and fold suppression by DEX of selected gene targets was calculated for cells cultured in media, with LPS or with bacteria.
The effects of inhibitors on cellular response to corticosteroids. To examine whether MAPK inhibition or transforming growth factor beta associated kinase 1 (TAK1) inhibition reverses the corticosteroid resistant response to pathogenic microbes, monocytes were pretreated with either TAK1 inhibitor (5Z)-7-Oxozeaenol, Curvularia sp. (Calbiochem, EMD Serono, Inc., Rockland, MA) (2 μM), the p38 inhibitor, SB203580 (10 μM) (Calbiochem) or the cocktail of the three MAPK inhibitors (SB203580, p38 inhibitor; PD98059, MEK1/ERK inhibitor (Invitrogen, Life Technologies, Grand Island, NY) and SP600125, JNK inhibitor (InVivogen, San Diego, CA), all at 10 μM) for 1 h prior to stimulation with bacteria and cellular response to corticosteroids was evaluated by real time PCR as described above. To assess the efficacy of inhibitors on suppression of cell activation induced by bacteria cells were pretreated with inhibitors for 1 h or cultured in media, stimulated with H. parainfluenzae for 15 min. Protein lysates were prepared as described above. ERK and hsp27 phosphorylation as downstream targets for TAK1 and p38 MAPK activation, respectively, were assessed by Western blot as described in (Zhang Y et al., J Immunol 2012, in press; Li L B et al., J Allergy Clin Immunol 2004; 114: 1059-69; Zhang Y et al., J Biol Chem 2009; 284: 24542-52).
Toll-like receptor (TLR) engagement by bacteria is the major pathway of cell activation by bacteria (Akira S, Nat Rev Immunol 2004; 4: 499-511). TAK1 phosphorylation represents a key downstream TLR signaling branching point that controls both MAPK and NFKB pathway activation in the cells (Liew F Y et al., Nat Rev Immunol 2005; 5: 446-58). To address the role of TLR signaling pathways in MAPK and TAK1 activation by H. parainfluenzae and the alteration of cellular response to corticosteroids, asthmatic peripheral blood monocytes were preincubated with/without TAK1 and MAPK inhibitors for 1 hour, stimulated with bacteria followed by treatment with DEX or medium and analyzed by real time PCR.

[2] = Bronchodilator responsiveness (FEV1 reversal with albuterol); format: in vivo, human
From the text: (§3) Study subjects. Thirty-nine adult asthmatics were enrolled in this study. […] Patients completed asthma questionnaires (ACQ) to assess their asthma control. […] Twelve healthy nonatopic subjects underwent bronchoscopy as controls. Smokers were excluded from participation in this study. Informed consent was obtained from all study participants before enrollment in this study.
26 adult asthma patients were enrolled. Sample collection involved assessment of patients with a clinical history of asthma, airflow limitation (baseline FEV1≤85% predicted) and either airway hyperresponsiveness (PC20 methacholine<8 mg/ml) or bronchodilator responsiveness (>12% improvement in FEV1% predicted after […] metered-dose inhaler albuterol).

[3] = Clinical response to oral prednisone burst (FEV1 percent predicted); format: in vivo, human; details: for FEV1% change after Prednisone burst, (Mean ± SD): prednisone 20 mg by mouth twice daily for 7 days; for FEV1% change after Prednisone burst, (Mean ± SE): one week 40 mg/d oral prednisone
From the text: as §3
Corticosteroid response of asthmatics was classified based on their prebronchodilator morning FEV1% predicted response to one week course of 40 mg/d oral prednisone.

hsp27 phosphorylation = experiment: Western blot of hsp27 phosphorylation as downstream read out for p38 MAPK activation by H. parainfluenzae; format: cell-based, human; details: 10 μM inhibitor, 15 min H. para, bacteria to cell ratio 1:1, monocytes from asthma patients, FIG. 4D
Protocol: as §1, §2

## COc1cc(O)c2c(c1)/C=C/C[C@H](O)[C@H](O)C(=O)/C=C\C[C@H](C)OC2=O [TAK1 inhibitor, (5Z)-7-Oxozeaenol]
ERK phosphorylation
  ERK phosphorylation by H. parainfluenzae: fully inhibited
[1]
  cellular sensitivity to corticosteroids in vitro (MKP-1 mRNA induction by DEX) in the presence of H. parainfluenzae: restoration of cellular sensitivity to corticosteroids; also recorded: steroid sensitive
  MKP-1 mRNA induction by H. parainfluenzae: significant inhibition
  IL-8 mRNA induction by H. parainfluenzae: significant inhibition

## CC(C)(C)NCC(O)c1ccc(O)c(CO)c1 (centres unmarked) [Albuterol, albuterol]
[2]; CR asthma, n = 29, 180 μg albuterol inhaled
  FEV1% reversal with Albuterol, (Mean ± SD): 15.0 ± 9.4%
[2]; CS asthma, n = 10, 180 μg albuterol inhaled
  FEV1% reversal with Albuterol, (Mean ± SD): 37.2 ± 24.7%
[2]; Normal controls, n = 12
  FEV1% reversal with Albuterol, (Mean ± SD): 5.1 ± 2.4%
[2]; SR asthma, n = 12
  FEV1% reversal with Albuterol, (Mean ± SE): 13.3 ± 2.1 %
[2]; SS asthma, n = 13
  FEV1% reversal with Albuterol, (Mean ± SE): 41.1 ± 8.7%

## C[C@]12C=CC(=O)C=C1CC[C@@H]1[C@@H]2C(=O)C[C@@]2(C)[C@H]1CC[C@]2(O)C(=O)CO [Prednisone, prednisone]
[3]; CR asthma, n = 29
  FEV1% change after Prednisone burst, (Mean ± SD): −0.2±5.9%
[3]; CS asthma, n = 10
  FEV1% change after Prednisone burst, (Mean ± SD): 31.0±23.5%
[3]; SR asthma, n = 12
  FEV1% change after Prednisone burst, (Mean ± SE): 0.8 ± 1.9 %
[3]; SS asthma, n = 13
  FEV1% change after Prednisone burst, (Mean ± SE): 42.2 ± 10.0%

## C[S+]([O-])c1ccc(-c2nc(-c3ccncc3)c(-c3ccc(F)cc3)[nH]2)cc1 (centres unmarked) [P38 MAPK inhibitor, SB203580]
[1]
  cellular sensitivity to corticosteroids in vitro (MKP-1 mRNA induction by DEX) in the presence of H. parainfluenzae: failed to restore
  MKP-1 mRNA induction by H. parainfluenzae: reduced
  IL-8 mRNA induction by H. parainfluenzae: reduced
hsp27 phosphorylation
  hsp27 phosphorylation by H. parainfluenzae: fully inhibited
